Test results as given in the NIST ThermoML archive (doi:10.1016/j.fluid.2017.09.014).
Numbers after ± are expanded uncertainties.

Experiment: xn = mol fraction of the nth substance listed
Conditions: Vibrating tube method, x2 = 0.9503

O=S=O [sulfur dioxide] + O=C=O
Conditions | mass density [kg/m3]
322.49 K, 26001 kPa, Fluid (supercritical or subcritical phases) | 875.4 ± 0.8
322.49 K, 26517 kPa, Fluid (supercritical or subcritical phases) | 878.8 ± 0.8
322.49 K, 27508 kPa, Fluid (supercritical or subcritical phases) | 886.3 ± 0.8
322.49 K, 28018 kPa, Fluid (supercritical or subcritical phases) | 889.5 ± 0.8
322.49 K, 29025 kPa, Fluid (supercritical or subcritical phases) | 896.4 ± 0.7
322.49 K, 29507 kPa, Fluid (supercritical or subcritical phases) | 899.6 ± 0.7
322.5 K, 17499 kPa, Fluid (supercritical or subcritical phases) | 793.5 ± 1.3
322.5 K, 18503 kPa, Fluid (supercritical or subcritical phases) | 806.6 ± 1.3
322.5 K, 19491 kPa, Fluid (supercritical or subcritical phases) | 818.5 ± 1.1
322.5 K, 24497 kPa, Fluid (supercritical or subcritical phases) | 864.4 ± 0.9
322.5 K, 25003 kPa, Fluid (supercritical or subcritical phases) | 867.7 ± 0.8
322.51 K, 11504 kPa, Fluid (supercritical or subcritical phases) | 649.9 ± 3.5
322.51 K, 12003 kPa, Fluid (supercritical or subcritical phases) | 672.3 ± 2.9
322.51 K, 16502 kPa, Fluid (supercritical or subcritical phases) | 779.1 ± 1.5
322.51 K, 17005 kPa, Fluid (supercritical or subcritical phases) | 786.2 ± 1.3
322.52 K, 14000 kPa, Fluid (supercritical or subcritical phases) | 731.9 ± 1.9
322.52 K, 14504 kPa, Fluid (supercritical or subcritical phases) | 742.9 ± 1.7
322.52 K, 15012 kPa, Fluid (supercritical or subcritical phases) | 753.2 ± 1.7
322.52 K, 15501 kPa, Fluid (supercritical or subcritical phases) | 761.8 ± 1.5
322.52 K, 16003 kPa, Fluid (supercritical or subcritical phases) | 770.9 ± 1.5
322.53 K, 12505 kPa, Fluid (supercritical or subcritical phases) | 691.1 ± 2.5
322.53 K, 13501 kPa, Fluid (supercritical or subcritical phases) | 720.4 ± 2.1
322.54 K, 13000 kPa, Fluid (supercritical or subcritical phases) | 706.7 ± 2.3
352.93 K, 202 kPa, Gas | 3 ± 0.2
352.93 K, 6001 kPa, Gas | 114.8 ± 0.4
352.94 K, 1742 kPa, Gas | 28.6 ± 0.2
352.94 K, 2504 kPa, Gas | 41.8 ± 0.2
352.94 K, 4003 kPa, Gas | 70.6 ± 0.2
352.94 K, 4493 kPa, Gas | 80.5 ± 0.2
352.94 K, 6516 kPa, Gas | 127.7 ± 0.4
352.94 K, 7017 kPa, Gas | 140.9 ± 0.4
352.94 K, 7498 kPa, Fluid (supercritical or subcritical phases) | 154.1 ± 0.5
352.94 K, 8038 kPa, Fluid (supercritical or subcritical phases) | 170.3 ± 0.5
352.94 K, 9008 kPa, Fluid (supercritical or subcritical phases) | 201.9 ± 0.7
352.95 K, 306 kPa, Gas | 4.6 ± 0.2
352.95 K, 402 kPa, Gas | 6 ± 0.2
352.95 K, 511 kPa, Gas | 7.6 ± 0.2
352.95 K, 740 kPa, Gas | 11.4 ± 0.2
352.95 K, 1507 kPa, Gas | 24.3 ± 0.2
352.95 K, 2002 kPa, Gas | 33 ± 0.2
352.95 K, 2248 kPa, Gas | 37 ± 0.2
352.95 K, 2800 kPa, Gas | 47.2 ± 0.2
352.95 K, 3009 kPa, Gas | 51 ± 0.2
352.95 K, 4997 kPa, Gas | 91.5 ± 0.2
352.95 K, 5490 kPa, Gas | 102.6 ± 0.4
352.95 K, 9230 kPa, Fluid (supercritical or subcritical phases) | 209.5 ± 0.7
352.95 K, 12000 kPa, Fluid (supercritical or subcritical phases) | 321.9 ± 2.7
352.95 K, 12505 kPa, Fluid (supercritical or subcritical phases) | 346.8 ± 2.9
352.95 K, 14502 kPa, Fluid (supercritical or subcritical phases) | 447.3 ± 2.9
352.95 K, 15497 kPa, Fluid (supercritical or subcritical phases) | 493.2 ± 2.7
352.95 K, 16515 kPa, Fluid (supercritical or subcritical phases) | 535.1 ± 2.5
352.95 K, 17520 kPa, Fluid (supercritical or subcritical phases) | 569.4 ± 2.1
352.95 K, 19511 kPa, Fluid (supercritical or subcritical phases) | 624.5 ± 1.7
352.95 K, 21993 kPa, Fluid (supercritical or subcritical phases) | 677.2 ± 1.5
352.95 K, 22493 kPa, Fluid (supercritical or subcritical phases) | 686.4 ± 1.3
352.95 K, 23011 kPa, Fluid (supercritical or subcritical phases) | 694.8 ± 1.3
352.95 K, 24538 kPa, Fluid (supercritical or subcritical phases) | 717.4 ± 1.3
352.95 K, 25002 kPa, Fluid (supercritical or subcritical phases) | 723.7 ± 1.1
352.95 K, 31494 kPa, Fluid (supercritical or subcritical phases) | 793.2 ± 0.9
352.96 K, 982 kPa, Gas | 15.1 ± 0.2
352.96 K, 1248 kPa, Gas | 19.9 ± 0.2
352.96 K, 3495 kPa, Gas | 60.3 ± 0.2
352.96 K, 8507 kPa, Fluid (supercritical or subcritical phases) | 185.5 ± 0.5
352.96 K, 10075 kPa, Fluid (supercritical or subcritical phases) | 238.1 ± 2.1
352.96 K, 11001 kPa, Fluid (supercritical or subcritical phases) | 276.4 ± 2.3
352.96 K, 12998 kPa, Fluid (supercritical or subcritical phases) | 371.8 ± 2.9
352.96 K, 13501 kPa, Fluid (supercritical or subcritical phases) | 397.6 ± 2.9
352.96 K, 14004 kPa, Fluid (supercritical or subcritical phases) | 422.3 ± 2.9
352.96 K, 15003 kPa, Fluid (supercritical or subcritical phases) | 470.1 ± 2.9
352.96 K, 16004 kPa, Fluid (supercritical or subcritical phases) | 514.7 ± 2.5
352.96 K, 17006 kPa, Fluid (supercritical or subcritical phases) | 552.6 ± 2.3
352.96 K, 19011 kPa, Fluid (supercritical or subcritical phases) | 611.7 ± 1.9
352.96 K, 20014 kPa, Fluid (supercritical or subcritical phases) | 636.9 ± 1.7
352.96 K, 20490 kPa, Fluid (supercritical or subcritical phases) | 647.4 ± 1.7
352.96 K, 20999 kPa, Fluid (supercritical or subcritical phases) | 657.9 ± 1.5
352.96 K, 21521 kPa, Fluid (supercritical or subcritical phases) | 668.5 ± 1.5
352.96 K, 23524 kPa, Fluid (supercritical or subcritical phases) | 703.1 ± 1.3
352.96 K, 24023 kPa, Fluid (supercritical or subcritical phases) | 710.4 ± 1.3
352.96 K, 25555 kPa, Fluid (supercritical or subcritical phases) | 731.2 ± 1.1
352.96 K, 26036 kPa, Fluid (supercritical or subcritical phases) | 736.4 ± 1.1
352.96 K, 27501 kPa, Fluid (supercritical or subcritical phases) | 752.6 ± 1.1
352.96 K, 28006 kPa, Fluid (supercritical or subcritical phases) | 758.3 ± 1.1
352.96 K, 28507 kPa, Fluid (supercritical or subcritical phases) | 764.2 ± 1.1
352.96 K, 29492 kPa, Fluid (supercritical or subcritical phases) | 773.9 ± 0.9
352.96 K, 29991 kPa, Fluid (supercritical or subcritical phases) | 779 ± 0.9
352.96 K, 31058 kPa, Fluid (supercritical or subcritical phases) | 789.4 ± 0.9
352.96 K, 31993 kPa, Fluid (supercritical or subcritical phases) | 797.6 ± 0.9
352.96 K, 33014 kPa, Fluid (supercritical or subcritical phases) | 805.8 ± 0.9
352.96 K, 33519 kPa, Fluid (supercritical or subcritical phases) | 809.8 ± 0.9
352.96 K, 36996 kPa, Fluid (supercritical or subcritical phases) | 835.2 ± 0.7
352.97 K, 10506 kPa, Fluid (supercritical or subcritical phases) | 255.3 ± 2.1
352.97 K, 11505 kPa, Fluid (supercritical or subcritical phases) | 298.8 ± 2.5
352.97 K, 18007 kPa, Fluid (supercritical or subcritical phases) | 583.3 ± 2.1
352.97 K, 18500 kPa, Fluid (supercritical or subcritical phases) | 597.8 ± 1.9
352.97 K, 26597 kPa, Fluid (supercritical or subcritical phases) | 742.8 ± 1.1
352.97 K, 29001 kPa, Fluid (supercritical or subcritical phases) | 768.7 ± 0.9
352.97 K, 30512 kPa, Fluid (supercritical or subcritical phases) | 784.7 ± 0.9
352.97 K, 32552 kPa, Fluid (supercritical or subcritical phases) | 802.4 ± 0.9
352.97 K, 34055 kPa, Fluid (supercritical or subcritical phases) | 814.5 ± 0.9
352.97 K, 35014 kPa, Fluid (supercritical or subcritical phases) | 821.4 ± 0.9
352.97 K, 35510 kPa, Fluid (supercritical or subcritical phases) | 824.7 ± 0.7
352.97 K, 36496 kPa, Fluid (supercritical or subcritical phases) | 831.8 ± 0.7
352.97 K, 37499 kPa, Fluid (supercritical or subcritical phases) | 838.7 ± 0.7
352.97 K, 38520 kPa, Fluid (supercritical or subcritical phases) | 845.7 ± 0.7
352.97 K, 39009 kPa, Fluid (supercritical or subcritical phases) | 848.1 ± 0.7
352.98 K, 27043 kPa, Fluid (supercritical or subcritical phases) | 747.4 ± 1.1
352.98 K, 34563 kPa, Fluid (supercritical or subcritical phases) | 818.1 ± 0.9
352.98 K, 36013 kPa, Fluid (supercritical or subcritical phases) | 828.1 ± 0.7
352.98 K, 38023 kPa, Fluid (supercritical or subcritical phases) | 842.1 ± 0.7
352.98 K, 39300 kPa, Fluid (supercritical or subcritical phases) | 850.2 ± 0.7
352.98 K, 39330 kPa, Fluid (supercritical or subcritical phases) | 850.5 ± 0.7
